Like-named read-outs stand apart in the source and are kept apart here.
Assays:
Wee1 kinase domain = molecular target: T1, Wee1 kinase domain (Homo sapiens, UniProt P30291); assay: Wee1 Kinase Biochemical Assay (ADP-Glo); conditions: 15 uM ATP
T1 construct: Wee1 kinase domain was purchased from Carna (catalog #05-177); purchased Carna 05-177
Outline: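 Compounds tested against 1 nM Wee1 kinase domain in Tris buffer containing 20 mM MgCl2, BSA and 2 mM DTT, with 15 uM ATP and poly(Lys,Tyr) substrate for 4 h at 25 °C. Luminescent ADP detection gave percent inhibition, normalized to DMSO and saturating inhibitor.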

[1] = test system: phosphorylation of Cdc2 Y15 (Wee1 substrate) in A427 cells; assay: Phosphorylated Cdc2 MSD Electrochemiluminescence Assay; assay type: cell-based; conditions: Homo sapiens
Description: Phosphorylated Cdc2 MSD Electrochemiluminescence Assay
The effect of Wee1 inhibitors on cellular phosphorylation of the Wee1 substrate Cdc2 was determined using the following protocol:
A total of 40,000 A427 cells in 100 uL culture medium (1640 medium+10% Fetal bovine serum+1% Penicillin-Streptomycin) were plated in 96-well cell culture plates. 3-fold serial dilutions of test compounds were prepared in completed PBS at 25× final concentration. After 20 hours, the plates were removed and 4 μL of each were added to the cells and incubated with shaking for 30 minutes at 37° C., 5% CO2. Each concentration was tested in duplicate. After a total 6 hours incubation, plates were removed and centrifuged for 5 minutes and 100 uL of supernatant from each well was removed. Cells were washed with 200 μL PBS and lysed with 50 μL MSD lysis buffer (Meso Scale Diagnostics) supplied with 1× complete ULTRA cocktail inhibitor (Roche).
To detect phosphorylation of Cdc2 Y15, 30 μL of capture antibody solution (CST catalog #9116S 1:200) was added into each well of the MSD plate (MSD catalog #L15XB-6), sealed and incubated at 4° C. with shaking (450 rpm) overnight. The antibody solution was removed, wells blocked with BSA solution and plates washed three times with PBST, followed by addition of 30 μl of cell lysate per well. After 2 hours of incubation, plates were washed three times with PBST. 30 μL of 1× detection antibody solution (CST catalog #4539S 1:200) was then added to each well and incubated for 1 hour. Plates were washed three times with PBST and 30 μL of 1× secondary antibody solution (MSD, catalog #:R32AB-1, 1:5000) was added to each well and incubated for 1 hour. Plates were washed three times with PBST and 150 μL of 1× Read Buffer T (MSD, catalog #R92TC-1) was added to each well of the MSD plate. The electrochemiluminescence signal was measured on a MESO SECTOR S600 plate reader. The percentage of remaining phosphorylated Cdc2 signal was calculated following the equation below.
[formula] • HC (high control): Cells treated with DMSO • Cpds: Cells treated with test compounds • LC (low control): Cells treated with positive control Wee1 inhibitor

[2] = class symbols, 1 nM Wee1 enzyme, 4 hours at 25° C.
[3] = A-427, class symbols, read-out: A427 pCDC2 MSD IC50

T1 sequence (P30291 299-569 limits assumed): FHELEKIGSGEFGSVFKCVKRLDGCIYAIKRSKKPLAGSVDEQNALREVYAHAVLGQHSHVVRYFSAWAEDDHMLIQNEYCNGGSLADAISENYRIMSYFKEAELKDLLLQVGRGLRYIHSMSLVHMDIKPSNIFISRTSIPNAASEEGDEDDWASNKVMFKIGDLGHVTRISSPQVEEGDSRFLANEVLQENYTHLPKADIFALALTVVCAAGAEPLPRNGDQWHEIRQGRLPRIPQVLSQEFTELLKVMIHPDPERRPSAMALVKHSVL

Row | SMILES | IC50 (Wee1 kinase domain; Wee1 kinase domain, ADP-Glo) [µM] | IC50 ([1]; A-427, pCDC2 MSD) [µM] | IC50 (Wee1 kinase domain; [2]) [µM] | IC50 [1, 3] [µM]
1 | CN1CC(c2ccc(Nc3ncc4c(n3)N(c3cccc(N5CCOC5=O)n3)[C@@H]3CC(C)(C)OC[C@]43C)cc2)C1 [Example 698, 3-(6-((4bR,8aR)-4b,7,7-trimethyl-2-((4-(1-methylazetidin-3-yl)phenyl)amino)-4b,7,8,8a-tetrahydropyrano[3′,4′:4,5]pyrrolo[2,3-d]pyrimidin-9(5H)-yl)pyridin-2-yl)oxazolidin-2-one] | – | – | < 0.01 | 0.1 to 1
2 | CC1(C)C[C@H]2N(c3cccc(C(C)(C)O)n3)c3nc(Nc4ccc(O[C@H]5CCNC5)cc4)ncc3[C@@]2(C)CO1 (single isomer, unassigned) [Example 419] | – | – | < 0.01 | < 0.1
3 | CNCc1cccc(N2c3nc(Nc4ccc(C(=O)N5CCOCC5)cc4)ncc3[C@@]3(C)COC(C)(C)C[C@@H]23)n1 (single isomer, unassigned) [Example 24] | < 0.01 | 0.1 to 1 | – | –
4 | CN1C[C@@H]2C[C@H]1CN2c1ccc(Nc2ncc3c(n2)N(c2cccc(C4(O)COC4)n2)[C@@H]2CC(C)(C)OC[C@]32C)cc1 (single isomer, unassigned) [Example 518] | – | – | < 0.01 | 0.1 to 1
5 | CNCc1cccc(N2c3nc(NC(=O)[C@@H]4C[C@H]4c4cnn(C)c4)ncc3[C@@]3(C)COC(C)(C)C[C@@H]23)n1 [Example 764, (1R,2R)-2-(1-methyl-1H-pyrazol-4-yl)-N-((4bR,8aR)-4b,7,7-trimethyl-9-(6-((methylamino)methyl)pyridin-2-yl)-4b,5,7,8,8a,9-hexahydropyrano[3′,4′:4,5]pyrrolo[2,3-d]pyrimidin-2-yl)cyclopropane-1-carboxamide] | – | – | < 0.01 | 0.1 to 1
6 | CN1C[C@H]2C[C@@H]1CN2c1ccc(Nc2ncc3c(n2)N(c2cccc(C(C)(C)O)n2)[C@@H]2CC(C)(C)OC[C@]32C)cc1Cl (single isomer, unassigned) [Example 433] | – | – | < 0.01 | 0.1 to 1
7 | CNCc1cccc(N2c3nc(Nc4ccc(-n5nccn5)cc4)ncc3[C@@]3(C)COC(C)(C)C[C@@H]23)n1 (single isomer, unassigned) [Example 767] | – | – | < 0.01 | 0.1 to 1
8 | C[C@H]1COC(=O)N1c1cccc(N2c3nc(Nc4ccc(O[C@@H]5CCNC5)nc4)ncc3[C@@]3(C)COC(C)(C)C[C@@H]23)n1 (single isomer, unassigned) [Example 287] | < 0.01 | 0.1 to 1 | – | –
9 | CNCc1cccc(N2c3nc(Nc4ccc([C@H]5CCC(=O)N5C)cc4)ncc3[C@@]3(C)COC(C)(C)C[C@@H]23)n1 (single isomer, unassigned) [Example 54] | < 0.01 | < 0.1 | – | –
10 | CN1C[C@H]2C[C@@H]1CN2c1ccc(Nc2ncc3c(n2)N(c2cccc(P(C)(C)=O)n2)[C@@H]2CC(C)(C)OC[C@]32C)cc1 [Example 778, dimethyl(6-((4bR,8aR)-4b,7,7-trimethyl-2-((4-((1R,4R)-5-methyl-2,5-diazabicyclo[2.2.1]heptan-2-yl)phenyl)amino)-4b,7,8,8a-tetrahydropyrano[3′,4′:4,5]pyrrolo[2,3-d]pyrimidin-9(5H)-yl)pyridin-2-yl)phosphine oxide] | – | – | < 0.01 | 0.1 to 1
11 | CN1C[C@H]2C[C@@H]1CN2c1ccc(Nc2ncc3c(n2)N(c2cccc(C4(O)CC4)n2)C2CC(C)(C)OCC32C)cc1 (stereo in doubt) [Example 646, 1-(6-((4bR,8aR)-4b,7,7-trimethyl-2-((4-((1R,4R)-5-methyl-2,5-diazabicyclo[2.2.1]heptan-2-yl)phenyl)amino)-4b,7,8,8a-tetrahydropyrano[3′,4′:4,5]pyrrolo[2,3-d]pyrimidin-9(5H)-yl)pyridin-2-yl)cyclopropan-1-ol] | – | – | < 0.01 | 0.1 to 1
12 | CC1(C)C[C@H]2N(c3cccc(P(C)(C)=O)n3)c3nc(Nc4ccn([C@H]5CCOC5)c(=O)c4)ncc3[C@@]2(C)CO1 [Example 782, 4-(((4bR,8aR)-9-(6-(dimethylphosphoryl)pyridin-2-yl)-4b,7,7-trimethyl-4b,5,7,8,8a,9-hexahydropyrano[3′,4′:4,5]pyrrolo[2,3-d]pyrimidin-2-yl)amino)-1-((S)-tetrahydrofuran-3-yl)pyridin-2(1H)-one] | – | – | < 0.01 | < 0.1
13 | C[C@H]1COC(=O)N1c1cccc(N2c3nc(Nc4ccc(O[C@@H]5CCNC5)cc4)ncc3[C@@]3(C)COC(C)(C)C[C@@H]23)n1 (single isomer, unassigned) [Example 327] | < 0.01 | 0.1 to 1 | – | –
14 | Cc1cc(Nc2ncc3c(n2)N(c2cccc(N4C(=O)OC[C@@H]4C)n2)[C@@H]2CC(C)(C)OC[C@]32C)ccc1O[C@@H]1CCN(C)C1 (single isomer, unassigned) [Example 347] | < 0.01 | 0.1 to 1 | – | –
15 | C[C@H]1COC(=O)N1c1cccc(N2c3nc(Nc4ccc(C5CN(C)C5)cc4)ncc3[C@@]3(C)COC(C)(C)C[C@@H]23)n1 (single isomer, unassigned) [Example 311] | < 0.01 | 0.1 to 1 | – | –

The remaining lines, values ahead:

Row | IC50 (Wee1 kinase domain; Wee1 kinase domain, ADP-Glo) [µM] | IC50 ([1]; A-427, pCDC2 MSD) [µM] | IC50 (Wee1 kinase domain; [2]) [µM] | IC50 [1, 3] [µM] | SMILES
16 | < 0.01 | 1 to 10 | – | – | CN1CC[C@@H](n2ccc(Nc3ncc4c(n3)N(c3cccc(N=S(C)(C)=O)n3)[C@@H]3CC(C)(C)OC[C@]43C)n2)C1 (single isomer, unassigned) [Example 227]
17 | < 0.01 | 1 to 10 | – | – | CN1CC[C@H](n2ccc(Nc3ncc4c(n3)N(c3cccc(N=S(C)(C)=O)n3)[C@@H]3CC(C)(C)OC[C@]43C)n2)C1 (single isomer, unassigned) [Example 225]
18 | – | – | < 0.01 | 0.1 to 1 | CN=[S@](C)(=O)c1cccc(N2c3nc(Nc4ccc(N5CCN(C)CC5)cc4)ncc3[C@@]3(C)COC(C)(C)C[C@@H]23)n1 (single isomer, unassigned) [Example 766]
19 | < 0.01 | 0.1 to 1 | – | – | CN1CC[C@H](n2cc(Nc3ncc4c(n3)N(c3cccc(N=S(C)(C)=O)n3)[C@@H]3CC(C)(C)OC[C@]43C)cn2)C1 (single isomer, unassigned) [Example 198]
20 | < 0.01 | < 0.1 | – | – | Cc1cc(Nc2ncc3c(n2)N(c2cccc(N=S(C)(C)=O)n2)[C@@H]2CC(C)(C)OC[C@]32C)ccc1[C@H]1COCCN1 (single isomer, unassigned) [Example 120]
21 | – | – | < 0.01 | 0.1 to 1 | Cn1cc([C@H]2C[C@@H]2C(=O)Nc2ncc3c(n2)N(c2cccc(N=S(C)(C)=O)n2)[C@@H]2CC(C)(C)OC[C@]32C)cn1 (single isomer, unassigned) [Example 406]
22 | – | – | < 0.01 | 1 to 10 | Cn1cc(C(=O)Nc2ncc3c(n2)N(c2cccc(N=S(C)(C)=O)n2)[C@@H]2CC(C)(C)OC[C@]32C)cn1 (single isomer, unassigned) [Example 408]
23 | < 0.01 | 0.1 to 1 | – | – | Cn1ccc(Nc2ncc3c(n2)N(c2cccc(N=S(C)(C)=O)n2)[C@@H]2CC(C)(C)OC[C@]32C)cc1=O (single isomer, unassigned) [Example 363]
24 | – | – | < 0.01 | < 0.1 | CN1CC[C@H](Oc2ccc(Nc3ncc4c(n3)N(c3cccc(C(C)(C)O)n3)[C@@H]3CC(C)(C)OC[C@]43C)cc2)C1 (single isomer, unassigned) [Example 421]
25 | < 0.01 | < 0.1 | – | – | CN1CC(c2ccc(Nc3ncc4c(n3)N(c3cccc(N=S(C)(C)=O)n3)[C@@H]3CC(C)(C)OC[C@]43C)cc2F)C1 (single isomer, unassigned) [Example 184]
26 | – | – | < 0.01 | 1 to 10 | Cn1cc(Nc2ncc3c(n2)N(c2cccc(N=S(C)(C)=O)n2)[C@@H]2CC(C)(C)OC[C@]32C)ccc1=O (single isomer, unassigned) [Example 495]
27 | < 0.01 | < 0.1 | – | – | CN1Cc2cc(Nc3ncc4c(n3)N(c3cccc(N=S(C)(C)=O)n3)[C@@H]3CC(C)(C)OC[C@]43C)ccc2C(C)(C)C1 (single isomer, unassigned) [Example 135]
28 | < 0.01 | 0.1 to 1 | – | – | CN1CC(c2ccc(Nc3ncc4c(n3)N(c3cccc(N=S(C)(C)=O)n3)[C@@H]3CC(C)(C)OC[C@]43C)cn2)C1 (single isomer, unassigned) [Example 192]

Source: patent US20260166039A1 (SCHRÖDINGER, INC., priority 2022, published 2026)
